Data taken from patent US20070213291A1, “Therapeutically useful synthetic oligonucleotides” (priority 1999, published 2007).

Tests used:
Type in all cases: cell-based
[1] = system: Jurkat human leukemia T cells; test: Cell cycle stage in Jurkat cells (propidium iodide flow cytometry); conditions: 24 h
Method: Cell cycle stage was determined using a […]™ PLUS DNA commercial kit (Becton Dickinson). Briefly, nuclei from cells were obtained by dissolving the cell membrane in a nonionic detergent, eliminating the cell cytoskeleton and nuclear proteins with trypsin, digesting the cellular RNA with RNase and stabilizing the nuclear chromatin with spermine. Propidium iodide was added to the cell nuclei and their fluorescence was analyzed in a flow cytometer equipped with electronic doublet discrimination capability (FACSCalibur, Becton Dickinson, San Jose, Calif.). Accumulation of cells in G0/G1, early S (SE), mid S (SM), late S (SL) or G2/M phases of the cell cycle was analyzed using MODFIT LT software (Verity Software House Inc., Topsham, Mass.).
Exponentially growing Jurkat human leukemia T cells (Table 28) and MCF-7 human breast cancer cells (5×10^5 cells/ml) (Table 29) were incubated for 24 h with 2, 6, 15, 18, 27 and 45 base sequences containing A, C, G and T. The cells were collected and centrifuged and cell cycle stage was determined.
Jurkat human cell leukemia T cells (1×10^6 cells/ml) were incubated for 24 h with 6 base GT SEQ ID NO:25, conplementary 6 base AC SEQ ID NO:79 and 6 base GT SEQ ID NO:25+6 base AC SEQ ID NO:79. GT SEQ ID NO:25 and AC SEQ ID NO:79 were hybridized by mixing the oligonucleotides (1:1) and heating for 10 minutes at 65° C. As controls, GT SEQ ID NO:25 and AC SEQ ID NO:79 were heated for 10 minutes at 65° C. (Table 30).

[2] = system: Jurkat human leukemia T cells; test: NuMA release into supernatant (ELISA); conditions: for % NuMA released (treated vs untreated cells): 50 μM sequence; for % NUMA RELEASED: Jurkat 1×10^6/ml
Method: (§1) The redistribution of phosphatidylserine in the plasma membrane during apoptosis was measured by flow cytometry using FITC-conjugated annexin V (BD Pharmingen, San Diego, Calif.). NuMA release into the supernatant was determined using a commercial ELISA kit (Oncogen/Calbiochem, Cambridge, Mass.).
Jurkat human leukemia T cells were incubated with 50 μM of 3, 4, 5, 6 and 7 GT base sequences, a 5 base ACGT sequence, 6 base AG, GG, AGT and CGT sequences and a 7 base GG sequence.
Jurkat human leukemia T cells (1×10^6/ml) were incubated with 6 and 27 GT base sequences (Table 32). NuMA was determined as in Example 23.
Jurkat human cell leukemia T cells were incubated for 24 h with 6 base GT SEQ ID NO:25, complementary 6 base AC SEQ ID NO:79, and 6 base GT SEQ ID NO:25+6 base AC SEQ ID NO:79. GT SEQ ID NO:25 and AC SEQ ID NO:79 were hybridized by mixing the sequences (1:1) and heating for 10 minutes at 65° C. As controls, GT SEQ ID NO:25 and AC SEQ ID NO:79 were heated for 10 minutes at 65° C. (Table 33). Apoptosis was evaluated as in Example 23.

[3] = system: Jurkat human leukemia T cells; test: Apoptosis by phosphatidylserine/annexin V-FITC flow cytometry; conditions: 50 μM sequence
Method: as §1
Jurkat human leukemia T cells were incubated with 50 μM of 3, 4, 5, 6 and 7 GT base sequences, a 5 base ACGT sequence, 6 base AG, GG, AGT and CGT sequences and a 7 base GG sequence. […]
Jurkat human leukemia T cells were incubated with GT-rich or AC-rich sequences derived from the murA gene of Mycobacterium phlei (GenBank: Accession Number X99776). Inhibition of proliferation was measured by the reduction of MTT as in Example 3, cell cycle arrest was detected by flow cytometry using propidium iodide as in Example 21 and apoptosis was evaluated by flow cytometry using annexin-V-FITC as in Example 23.

[4] = system: Jurkat human leukemia T cells; test: Inhibition of Jurkat human leukemia T cell proliferation (MTT reduction); conditions: 100 μg/ml sequence, 48 h, 2.5×10^5 cells/ml
Method: (§2) Cells were seeded in 6 (1 ml/well), 24 (0.5 ml/well) or 96 (0.1 ml/well) well flat-bottom microplates and were maintained at 37° C. in a 5% CO2 atmosphere. Unless stated otherwise, 2.5×10^5 cells/ml were incubated with 0 μg/ml (control) and 100 μg/ml (treated) of 2 to 45 base sequences containing A, C, G and T for 48 h.
MTT was measured at a wavelength of 570 nm using a multiplate spectrophotometer reader (ELX800, Bio-TEK Instruments Inc., Winooski, Vt.).
Jurkat human leukemia T cells are an atypical multi-drug resistant human suspension tumor cell model.

[5] = system: THP-1 human acute monocytic leukemia cells; test: Cytokine production by THP-1 cells (ELISA); conditions: THP-1, 1×10^6 cells, 100 μg/ml, 48 h; p70 complex and free p40
Method: Unless stated otherwise, 1×10^6 cells were incubated with 100 μg/ml of each of the sequences tested for 48 h at 37° C. in 5% CO2. Production of cytokines IL-6, IL-10, IL-12, IL-1beta and TNF-alpha was determined in pg/ml in 100 μl of culture supernatant using the appropriate commercial ELISA (BioSource, Camarillo Calif.). The IL-12 ELISA measures both IL-12 p70 complex and free p40 subunit. Results are expressed as the “fold” (×) increase in cytokine production by treated cells compared to control cells.
THP-1 human acute monocytic leukemia cells were incubated with 2, 3, 6, 9, 12, 14, 15 and 18 base GT sequences and production of the cyotkine IL-6 was determined (Table 35).
THP-1 human acute monocytic leukemia cells were incubated with 6 base GT, AG, CG, GG, AGT and CGT sequences and production of the cytokines IL-12 and IL-6 was determined (Table 36).
THP-1 human acute monocytic leukemia cells were incubated with 6 base GT sequences, having either an oxygen (phosphodiester) or a sulfur (phosphorothioate) as the nonbridging atom on the phosphate groups and production of the cytokine IL-12 was determined (Table 39).
THP-1 human acute monocytic leukemia cells were incubated with 6 base GT SEQ ID NO:25, having either an oxygen (phosphodiester) or a sulfur (phosphorothioate) as the nonbridging atom on the phosphate groups and production of the cytokine IL-12 was determined (Table 40).

[6] = system: MCF-7 human breast cancer cells; test: Inhibition of MCF-7 cell proliferation (MTT); conditions: 100 μg/ml, 48 h, 5×10^5 cells/ml
Method: as §2
Cell proliferation was measured using dimethylthiazol-diphenyl-tetrazolium (MTT) reduction (Mosman et al. J. Immunol. Methods 65:55, 1983). MTT was measured at a wavelength of 570 nm using a multiplate spectrophotometer reader (ELX800, Bio-TEK Instruments Inc., Winooski, Vt.).
MCF-7 human breast cancer cells are a caspase 3 negative, estrogen-dependent human solid tumor model. MCF-7 cells (5×10^5 cells/ml) were incubated with 3 and 6 base GT sequences (Table 7).

[7] = Jurkat 1×10^6 cells/ml, sequences heated 10 minutes at 65° C.

Substance | % of cells in apoptosis (positive for PS/A-V staining) [3] | % NuMA released (treated vs untreated cells) ([2]; Jurkat) | % INHIBITION of Jurkat human leukemia T cell proliferation [4] | ↑ IL-12 (fold increase treated vs control cells) [5] | % INHIBITION of MCF-7 human breast cancer cell proliferation [6] | other results
CC(AC)1CC (DNA CCACCC; unmodified DNA) [SEQ ID NO:79] |  |  |  |  |  | % cells in phase: G0/G1 [1, 7]: 36.0%; % cells in phase: G2/M [1, 7]: 30.5%; % cells in phase: SE [1, 7]: 10.4%; % cells in phase: SL [1, 7]: 9.7%; % cells in phase: SM [1, 7]: 13.4%; Arrest (cell cycle) [1, 7]: had no effect on the cell cycle and None; % NuMA released (untreated vs treated cells) ([2]; Jurkat, 24 h, sequences heated 10 minutes at 65° C.): 9%
CG(GT)1A (DNA CGGTA; unmodified DNA) [SEQ ID NO:80] | 6% | 9% |  |  |  | 
GG(GG)1GGG (DNA GGGTGGG; unmodified DNA) | 12% | 26% |  |  |  | 
GG(GT)1 | 21% | 64% |  |  |  | 
GGGGGGGTGGGGGGGTGGGGGGGTGGG (unmodified DNA) [SEQ ID NO:4] |  |  | 11% |  |  | % of cells in phase: G0/G1 ([1]; Jurkat, 100 μg/ml): 36.5%; % of cells in phase: G2/M ([1]; Jurkat, 100 μg/ml): 22.3%; % of cells in phase: SE ([1]; Jurkat, 100 μg/ml): 16.3%; % of cells in phase: SL ([1]; Jurkat, 100 μg/ml): 11.1%; % of cells in phase: SM ([1]; Jurkat, 100 μg/ml): 13.8%; Arrest (cell cycle) ([1]; Jurkat, 100 μg/ml): None; % NUMA RELEASED [2]: 90%
GGGGGTGGGGGTGGGGGTGGGGGTGGG (unmodified DNA) [SEQ ID NO:3] |  |  | 24% |  |  | % of cells in phase: G0/G1 ([1]; Jurkat, 100 μg/ml): 40.5%; % of cells in phase: G2/M ([1]; Jurkat, 100 μg/ml): 23.6%; % of cells in phase: SE ([1]; Jurkat, 100 μg/ml): 13.3%; % of cells in phase: SL ([1]; Jurkat, 100 μg/ml): 9.7%; % of cells in phase: SM ([1]; Jurkat, 100 μg/ml): 12.9%; Arrest (cell cycle) ([1]; Jurkat, 100 μg/ml): None; % NUMA RELEASED [2]: 139%
GGGGTGG (unmodified DNA) [SEQ ID NO:62] | 30% | 123% | 41% |  |  | 
GGGTG (unmodified DNA) [SEQ ID NO:61] | 25% | 92% | 50% |  |  | 
GGGTGGGTGGGTGGGTGGGTGGGTGGG [SEQ ID NO:2] |  |  | 23% |  |  | % of cells in phase: G0/G1 ([1]; Jurkat, 100 μg/ml): 34.3%; % of cells in phase: G2/M ([1]; Jurkat, 100 μg/ml): 26.4%; % of cells in phase: SE ([1]; Jurkat, 100 μg/ml): 15.5%; % of cells in phase: SL ([1]; Jurkat, 100 μg/ml): 10.3%; % of cells in phase: SM ([1]; Jurkat, 100 μg/ml): 13.6%; Arrest (cell cycle) ([1]; Jurkat, 100 μg/ml): None; % NUMA RELEASED [2]: 49%
GGTG (unmodified DNA) [SEQ ID NO:56] | 24% | 112% | 54% |  |  | 
GGTGG (unmodified DNA) [SEQ ID NO:60] | 25% | 120% | 50% |  |  | 
GTGG (unmodified DNA) [SEQ ID NO:52] | 24% | 60% | 52% |  |  | 
GoGoGoTsGoGo |  |  | 12% | 0.2x | 0% | 
GoGoGsToGoGo |  |  | 17% | 0.1 x | 12% | 
GoGoGsTsGoGo |  |  | 13% | 0.5x | 43% | 
GoGsGoToGsGo |  |  | 11% | −0.1x | 13% | 
GsGoGoToGoGs |  |  | 16% | −0.1x | 12% | 
GsGsGoToGsGs |  |  | −13% | 0 x | −3% | 
